Results: US10017741B2, “Compositions and methods for obtaining enriched mesenchymal stem cell cultures” (StemCell Technologies Inc., priority 2013, dated 2018)

Tests used:
[1] = tested on: CB-derived cultures (CD45+/CD11b+ macrophages, Sca1+ monocytes); assay: Flow cytometry of CB-derived expansion cultures; format: cell-based, mouse; settings: CB-derived cultures, 1 μM up to P2
Experimental: (§1) c. Expansion of Human BM and Mouse BM and CB-Derived Cells Assay • 1. […] Cultures were allowed to grow for 10-14 days until adherent cells achieved 70 to 80% confluence. Mouse cultures were maintained under normal (5% CO2) or hypoxic conditions (5% CO2/5% O2) at 37 C in a cell culture incubator. Human cultures were maintained under 5% CO2 at 37 C in a humidified cell culture incubator. • 3. Adherent cells were passaged by releasing cultures from flask. Cultures were washed with 5 mL PBS and then 5 mL of 0.25% trypsin solution ([…] catalogue #07901) was added and the flasks incubated for 10 min at 37 C. To each flask, 5 mL complete medium was added to stop trypsin activity. • 4. Released cells were collected into a tube and centrifuged at 300×g for 5 minutes. • 5. Cells were resuspended in 2 mL of medium and counted using a hemocytometer. • 6. […] P1 cultures were incubated until they reached 70 to 80% confluence. • 8. Passaged cultures can be used at any time from P0 to P10 as needed for different applications.
(§2) d. Flow Cytometry Analysis • 1. Cultures of BM and CB-derived cells were trypsinized for 10 minutes and an equal volume of complete medium was added to cultures to stop trypsin activity • 2. Cell suspension was filtered through a 40 μm strainer, and cells counted using a hemocytometer • 3. Suspension was spun down at 300×g for 5 minutes. • 4. Supernatant was removed and cell pellet resuspended in FACS buffer (PBS with 2% FBS and 1 mM EDTA) • 5. A total of 1×10^5 cells in 300 μL FACS buffer was used for each flow cytometry analysis tube, including unstained, viability, compensation, and isotype controls. • 6. Cell suspensions were stained with fluorophore-labeled antibodies against CD45, CD11b, and Sca1, CD29, and viability dye. • 7. Cell suspensions were analyzed on a flow cytometer using compensation and isotype control to determine laser voltage and gating. • 8. Samples were gated on viable CD45^+ cells and 10,000 events per sample were collected. Alternatively, cells were gated on viable CD45^− cells and out of this gate the proportion of CD29+/Sca1^+ cells obtained.

[2] = tested on: BM-derived cultures (CD45+/CD11b+ macrophages, Sca1+ monocytes); assay: Flow cytometry of BM-derived expansion cultures; format: cell-based, mouse; settings: BM-derived cultures, 1 μM up to P2
Experimental: as §1, §2

In the case of `COc1cc(Oc2ccnc3cc(OC)c(OC)cc23)ccc1NC(=O)NC(C)c1nccs1` (centres unmarked) [KI20227, N-{4-[(6,7-dimethoxy-4-quinolyl)oxy]-2-methoxyphenyl}-N0-[1-(1,3-thiazole-2-yl)ethyl]urea], the “CD45+/CD11b+ mature macrophages, of viable cells” value [1] is reported as under 2% and the “CD45+/CD11b+ mature macrophages, of viable cells” value [2] is reported as under 2%.
